Measured values reported in patent US20160138088A1, “OPTIMIZED PROBES AND PRIMERS AND METHODS OF USING SAME FOR THE DETECTION, SCREENING, ISOLATION AND SEQUENCING OF VANCOMYCIN RESISTANCE GENES AND VANCOMYCIN RESISTANT ENTEROCOCCI” (priority 2009, published 2016).
“And” between values parts separate entries of the source, which are not always exact repeats. Identical values can stand only once.

B1: vanB: vanB oligonucleotide solution: SEQ ID NOS: 103, 108, and 66 (nucleic acid)
DNA 1: TTACCTACCCTGTCTTTGTGAA
DNA 2: CAGGTTCGTCCTTTGGCGTAACCA
DNA 3: GCTCAATTAAGATTTTTCCATCATATTGTC
modifications: chemistry not given here
B2: vanA: vanA oligonucleotide solution: SEQ ID NO: 1, 2, and 5 (nucleic acid)
DNA 1: TTGTGCGGTATTGGGAAACAGT
DNA 2: TGATTTGGTCCACCTCGCCAACAACTAACGC
DNA 3: CTCGACTTCCTGATGAATACGAAAGATTC
modifications: chemistry not given here

Assays:
VanD phenotype (vanD) = details: allele vanD; cited from earlier work
VanB phenotype (vanB) = details: allele vanB; cited from earlier work
VanA phenotype (vanA) = details: allele vanA; cited from earlier work
VanG phenotype (vanG) = details: allele vanG; cited from earlier work
VanC phenotype (vanC) = details: allele vanC; cited from earlier work
VanE phenotype (vanE) = details: allele vanE; cited from earlier work
[1] = system: E. faecium (ATCC No. 5159, strain MMC4, vanA) gDNA; experiment: Real-time PCR on E. faecium (vanA) gDNA; details: Input E. faecium (ATCC No. 5159, strain MMC4 vanA) gDNA; duplicate reactions; oligos 400 nM each
Experimental: (§1) The oligonucleotide sequences listed in Table 5 were tested for their ability to amplify their intended target sequences. About 25 μL PCRs were formulated using iQTM Supermix for qPCR (BioRad) and oligos at a final concentration of 400 nM each.
(§2) Genomic DNA isolated from E. faecium (ATCC No. 5159, strain MMC4, vanA) and E. faecalis (ATCC No. 700802, strain V583, vanB) were loaded into real-time PCRs using oligonucleotide solutions specific for vanA and vanB. The specificity of the oligonucleotide solutions was assessed by attempting to amplify E. faecalis (vanB) gDNA with vanA oligos and E. faecium (vanA) gDNA with vanB oligos. Amplification plots are illustrated in FIGS. 1 and 2, which show detection of vanA and vanB. Synthetic constructs encoding the vanA and vanB targets were amplified and compared to duplicate reactions where E. faecium (ATCC No. 5159, strain MMC4, vanA) and E. faecalis (ATCC No. 700802, strain V583, vanB) gDNA was amplified.
(§3) PCRs were run on the ABI 7500 with the following Thermal protocol: • 95° C. 5 minute, initial denaturation • 50 cycles of: • 95° C. 15 sec, denaturation, and • 60° C. 1 min, annealing/extension […]

[2] = system: E. faecalis (ATCC No. 700802, strain V583, vanB) gDNA; experiment: Real-time PCR on E. faecalis (vanB) gDNA; details: Input E. faecalis (ATCC No. 700802, strain V583, vanB) gDNA; duplicate reactions; oligos 400 nM each
Experimental: as §1, §2, §3

[3] = system: E. faecalis vanB synthetic construct; experiment: Real-time PCR amplification of vanB synthetic construct; details: Input synthetic construct (vanB); oligos 400 nM each; ABI 7500, 50 cycles
Experimental: as §1, §2, §3

[4] = system: E. faecium vanA synthetic construct; experiment: Real-time PCR amplification of vanA synthetic construct; details: Input synthetic construct (vanA); oligos 400 nM each; ABI 7500, 50 cycles
Experimental: as §1, §2, §3

Molecule | MIC (VanD phenotype (vanD)) | MIC (VanB phenotype (vanB)) | MIC (VanA phenotype (vanA)) | MIC (VanG phenotype (vanG)) | MIC (VanC phenotype (vanC)) | MIC (VanE phenotype (vanE)) | Ct [1] | Ct [2] | Ct [3] | Ct [4]
teicoplanin | 4 (moderate) μg/mL | ≦0.5 (sensitive) μg/mL | 16-512 (high) μg/mL | 0.5 (sensitive) μg/mL | ≦0.5 (sensitive) μg/mL | 0.5 (sensitive) μg/mL |  |  |  | 
CN[C@H](CC(C)C)C(=O)N[C@H]1C(=O)N[C@@H](CC(N)=O)C(=O)N[C@H]2C(=O)N[C@H]3C(=O)N[C@H](C(=O)N[C@H](C(=O)O)c4cc(O)cc(O)c4-c4cc3ccc4O)[C@H](O)c3ccc(c(Cl)c3)Oc3cc2cc(c3O[C@@H]2O[C@H](CO)[C@@H](O)[C@H](O)[C@H]2O[C@H]2C[C@](C)(N)[C@H](O)[C@H](C)O2)Oc2ccc(cc2Cl)[C@H]1O [vancomycin] | 128 (moderate) μg/mL | 4-1024 (can be high) μg/mL |  | 12-16 (low) μg/mL | 2-32 (low) μg/mL | 16 (low) μg/mL |  |  |  | 
B1 |  |  |  |  |  |  | UND | 21.85 and 21.53 | 24.04 | 
B2 |  |  |  |  |  |  | 19.67 and 19.80 | UND |  | 23.36
